For series [1], the system named is HBCx-22 breast cancer patient-derived xenograft. Put plainly: HBCx-22 breast cancer PDX model. Format: in vivo, Hsd: Athymic Nude-Foxn1nu mice. To be noted: 75 or 100 mg/kg BID, 42 days. As to the method:
The PDX models were established by subcutaneous inoculation of HBCx-22 or HBCx-34 cells into Hsd: Athymic Nude-Foxn1nu mice. Breast tumor-bearing mice received estrogen diluted in drinking water (β-oestradiol, 8.5 mg/L) from the date of tumor inoculation until the end of the study to promote optimal growth of the ER^+ cell line. Groups of 10 animals each were established by random assignment. Tumor volumes and body weights were measured twice weekly. […] Statistical analysis of end-of-study tumor volumes was performed using the Kruskal-Wallis test with Dunn's multiple comparisons test (HBCx-34) or Brown-Forsythe test with Dunnett's T3 multiple comparisons test (HBCx-22).
Compound 1 was administered to mice orally twice daily (BID) for 42 days at a dose of 75 or 100 mg/kg based on body weight. […] Compound 1 was administered to mice orally BID for 35 days at doses of 75 or 100 mg/kg based on body weight.

Series [2] deals with T026OV ovarian cancer patient-derived organoid. As to the kind of experiment: 7-day organoid colony formation, ATP content (Cell Titer Glo 3D). Format: cell-based, human. To be noted: T026OV PDO, 7 days. The source says:
The FU-97 (Cat #JCRB1074) human gastric cancer cell line and the Kuramochi (Cat #JCRB0098) and RMUG-S(Cat #IFO50320) human ovarian cancer cell lines were obtained from the National Institutes of Biomedical Innovation, Health and Nutrition's Japanese Collection of Research Bioresources (JCRB) (Ibaraki City, Osaka, Japan). The HCC1419 (Cat #CRL-2326) and HCC1428 (Cat #CRL-2327) human breast cancer cell lines and the NCI-H1650 (Cat #CRL-5883) and NCI-H1792 (Cat #CRL-5895) non-small cell lung cancer cell lines were obtained from ATCC (Manassas, Virginia, USA). The human gastric cancer cell lines GCIY (Cat #RCB0555) and SNU601 (Cat #CSC-C9686L) were obtained from the Riken Bioresource Research Center (Tsukuba, Ibaraki, Japan) and Creative Bioarray (Shirley, NY, USA), respectively. The T025OV ovarian cancer organoid model was developed from a patient-derived xenograft (PDX) model, which was developed from primary serous ovarian carcinoma cells obtained from Discovery Life Sciences (Huntsville, AL, USA, SN #350627149). T026OV organoids were developed from PDX cells obtained from The Jackson Laboratory (Bar Harbor, ME, USA, Cat #TM00335).
T025OV and T026OV PDOs were cultured in PDO complete media on a thin layer of growth-factor reduced Matrigel (Corning, Glendale, AZ, USA Cat #356231). […]
Compound 1 IC50 values for inhibition of organoid colony formation were determined by measuring ATP levels after 7 days of treatment utilizing Cell Titer Glo 3D reagent (Promega, Madison, WI, USA Cat #G9683). […] Luminescence values (RLU) were read-out using a Clariostar plate reader (BMG Labtech, Cary, NC). […]
In general terms: In ATP-based viability assays light output follows the ATP content of the culture.

The subject of series [3] is T025OV ovarian cancer patient-derived xenograft. Put plainly: T025OV ovarian cancer PDX model. Format: in vivo, NOG mice. Particulars: 75 mg/kg BID, 50 days. As to the method:
tissue from a treatment naïve patient with Stage 1 serous ovarian cancer was obtained from Discovery Life Sciences (Huntsville, AL, Case ID #200000835) and was expanded by subcutaneous implantation into female NOG mice. For tumor development, mice were inoculated subcutaneously on the right flank with isolated […] cells at 1×10^6 viable cells per mouse in 0.2 mL of DPBS mixed with Matrigel® Growth Factor Reduced Basement Membrane Matrix (1:1 ratio) (Corning®, Tewksbury, MA, USA, Cat #356237). Groups were established and drug treatment initiated when the mean tumor volume reached approximately 140-150 mm^3. […] For all studies, tumor volumes and body weights were measured twice weekly. […] Statistical analysis of end-of-study mean tumor volumes for the […] model was performed using an unpaired t-test with Welch's correction.

Molecules are shown by their SMILES.

Broadly, the IC50 is the midpoint of a concentration-inhibition curve. For orientation: IC90 means the concentration needed for an effect of 90%. Turning to `[2H]C([2H])(c1cnn(C)c1)N1C(=O)c2cc(S(=O)(=O)NC3(C)CC3)ccc2N2C1=NC[C@H]2C` [Compound 1, (R)-1-methyl-4-((1-methyl-1H-pyrazol-4-yl)methyl-d2)-N-(1-methylcyclopropyl)-5-oxo-1,2,4,5-tetrahydroimidazo[1,2-a]quinazoline-7-sulfonamide], the “tolerability (body weight)” value in series [1] is recorded as “generally well tolerated”. In addition, the IC50 in series [2] (Homo sapiens, 168 h, geometric mean, read-out: IC50 inhibition of ATP content) turned out to be 213 nM. In addition, the concentration for an effect of 90% (IC90) in series [2] (Homo sapiens, 168 h, geometric mean, read-out: IC90 inhibition of ATP content) is 567 nM. The “maximum reduction in cellular ATP content” value in series [2] is “approximately 50%”. Also, in series [3], the “mean decrease in body weight” value was found to be 4.6%.

The record behind these values is patent US20260272936A1, “TREATMENT OF CANCER WITH A PARG INHIBITOR” (858 Therapeutics, Inc., priority 2023, published 2026).
